Measured values published in patent US11230555B2, “Bicyclic RORγ modulators” (Escalier Biosciences B.V., priority 2018, dated 2022).

Biological target: T1, RORγt (Homo sapiens, UniProt P51449)
T1 construct: purchased reporter-cell kit
T1 sequence (P51449 269-508 limits assumed): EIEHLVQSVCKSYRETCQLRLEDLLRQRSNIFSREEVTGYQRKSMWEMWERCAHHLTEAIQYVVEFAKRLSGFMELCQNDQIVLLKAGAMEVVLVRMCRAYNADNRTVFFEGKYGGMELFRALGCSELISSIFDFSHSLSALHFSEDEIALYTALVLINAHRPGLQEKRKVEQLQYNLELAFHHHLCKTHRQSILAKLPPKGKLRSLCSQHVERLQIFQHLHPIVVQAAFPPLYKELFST
Test: Gal4 ligand binding assay (RORγt Gal fusion reporter assay)
Format: cell-based
Settings: inverse agonists, luciferase reporter, 24h
Description: Compounds of the present invention were tested in a human RORγ ligand binding assay using a commercially available cell based ligand binding reporter assay in 96-well format (Cat #IB04001, INDIGO Biosciences, State College, Pa.). The N-terminal DNA binding domains (DBD) of the native RORγ and RORγt receptors have been substituted with that of the yeast GAL4-DBD and stably transfected in […] cells that also stably express luciferase under the regulation by upstream activation sequence of yeast Gal4. These cells constitutively express high level RORγ activity due to binding of endogenous co-factors. Both agonist and inverse agonist activity can be detected. The assay was performed according to kit manufacturer's instructions as follows. 10 mM compound stocks were diluted serially 1:3 with DMSO and further diluted with provided media to generate 10 titration points from 60 μM to 3 nM. These treatment conditions were added to the plates as 2× media in 100 μL volume. Each plate includes a positive control with 10 titration points as well as 6negative control wells with vehicle only, with final DMSO concentration of 0.2%. RORγ reporter cells were rapidly thawed and added to the plates in 100 μL volume. The plates were incubated for 24h in a 37° C. humidified 5% CO2incubator. Media was removed before the addition of room temperature luciferous detection substrate. After 5 minute incubation, relative light units (RLUs) were quantified using a plate reading luminometer. Data was normalized to positive control wells with only […]. Before establishing internal controls, ursolic acid was used as control.

Row | SMILES | IC50 [µM]
1 | OC(c1ccc(-c2ccc(CN3CC4CCC(C3)N4Cc3ccncc3)cc2Br)cc1)(C(F)(F)F)C(F)(F)F [Example 41, 2-(2′-bromo-4′-((8-(pyridin-4-ylmethyl)-3,8-diazabicyclo[3.2.1]octan-3-yl)methyl)-[1,1′-biphenyl]-4-yl)-1,1,1,3,3,3-hexafluoropropan-2-ol] | < 0.05
2 | CCN1C2CCC1CN(Cc1ccc(-c3ccc(C(O)(C(F)(F)F)C(F)(F)F)cc3)c(C)c1)C2 [Example 42, 2-(4′-((8-ethyl-3,8-diazabicyclo[3.2.1]octan-3-yl)methyl)-2′-methyl-[1,1′-biphenyl]-4-yl)-1,1,1,3,3,3-hexafluoropropan-2-ol] | > 0.25
3 | Cc1cc(CN2CC3CCC(C2)N3C(=O)C2CCOCC2)ccc1-c1ccc(C(O)(C(F)(F)F)C(F)(F)F)cc1 [Example 43, (3-((4′-(1,1,1,3,3,3-hexafluoro-2-hydroxypropan-2-yl)-2-methyl-[1,1′-biphenyl]-4-yl)methyl)-3,8-diazabicyclo[3.2.1]octan-8-yl)(tetrahydro-2H-pyran-4-yl)methanone] | 0.05 to 0.25
4 | CCOC(=O)N1C2CCC1CN(Cc1ccc(-c3ccc(C(O)(C(F)(F)F)C(F)(F)F)cc3)c(C)c1)C2 [Example 44, ethyl 3-((4′-(1,1,1,3,3,3-hexafluoro-2-hydroxypropan-2-yl)-2-methyl-[1,1′-biphenyl]-4-yl)methyl)-3,8-diazabicyclo[3.2.1]octane-8-carboxylate] | > 0.25
5 | COCCC(=O)N1C2CCC1CN(Cc1ccc(-c3ccc(C(O)(C(F)(F)F)C(F)(F)F)cc3)c(C)c1)C2 [Example 45, 1-(3-((4′-(1,1,1,3,3,3-hexafluoro-2-hydroxypropan-2-yl)-2-methyl-[1,1′-biphenyl]-4-yl)methyl)-3,8-diazabicyclo[3.2.1]octan-8-yl)-3-methoxypropan-1-one] | > 0.25
6 | Cc1cc(CN2CC3CCC(C2)C3NS(C)(=O)=O)ccc1-c1ccc(C(O)(C(F)(F)F)C(F)(F)F)cc1 (stereo not drawn) [Example 46, N-(3-((4′-(1,1,1,3,3,3-hexafluoro-2-hydroxypropan-2-yl)-2-methyl-[1,1′-biphenyl]-4-yl)methyl)-3-azabicyclo[3.2.1]octan-8-yl)methanesulfonamide] | > 0.25
7 | Cc1cc(CN2CC3CCC(C2)N3Cc2ccncn2)ccc1-c1ccc(C(O)(C(F)(F)F)C(F)(F)F)cc1 [Example 47, 1,1,1,3,3,3-hexafluoro-2-(2′-methyl-4′-((8-(pyrimidin-4-ylmethyl)-3,8-diazabicyclo[3.2.1]octan-3-yl)methyl)-[1,1′-biphenyl]-4-yl)propan-2-ol] | < 0.05
8 | Cc1cc(CN2C3CCC2CN(Cc2ccc(-c4ccc(C(O)(C(F)(F)F)C(F)(F)F)cc4)c(Cl)c2)C3)ccn1 [Example 48, 2-(2′-chloro-4′-((8-((2-methylpyridin-4-yl)methyl)-3,8-diazabicyclo[3.2.1]octan-3-yl)methyl)-[1,1′-biphenyl]-4-yl)-1,1,1,3,3,3-hexafluoropropan-2-ol] | 0.05 to 0.25
9 | Cc1cc(CN2CC3CC2CN3S(C)(=O)=O)ccc1-c1ccc(C(O)(C(F)(F)F)C(F)(F)F)cc1 (stereo not drawn) [Example 49, 1,1,1,3,3,3-hexafluoro-2-(2′-methyl-4′-((5-(methylsulfonyl)-2,5-diazabicyclo[2.2.1]heptan-2-yl)methyl)-[1,1′-biphenyl]-4-yl)propan-2-ol] | > 0.25
10 | Cc1cc(CN2CC3CCC2CN3S(C)(=O)=O)ccc1-c1ccc(C(O)(C(F)(F)F)C(F)(F)F)cc1 (stereo not drawn) [Example 50, 1,1,1,3,3,3-hexafluoro-2-(2′-methyl-4′-((5-(methylsulfonyl)-2,5-diazabicyclo[2.2.2]octan-2-yl)methyl)-[1,1′-biphenyl]-4-yl)propan-2-ol] | > 0.25
11 | Cc1cc(CN2CC3CCC(C2)N3Cc2ccnnc2)ccc1-c1ccc(C(O)(C(F)(F)F)C(F)(F)F)cc1 [Example 51, 1,1,1,3,3,3-hexafluoro-2-(2′-methyl-4′-((8-(pyridazin-4-ylmethyl)-3,8-diazabicyclo[3.2.1]octan-3-yl)methyl)-[1,1′-biphenyl]-4-yl)propan-2-ol] | < 0.05
12 | CCc1cc(CN2CC3CCC(C2)N3S(C)(=O)=O)ccc1-c1ccc(C(O)(C(F)(F)F)C(F)(F)F)cc1 [Example 52, 2-(2′-ethyl-4′-((8-(methylsulfonyl)-3,8-diazabicyclo[3.2.1]octan-3-yl)methyl)-[1,1′-biphenyl]-4-yl)-1,1,1,3,3,3-hexafluoropropan-2-ol] | < 0.05
13 | CCc1cc(CN2CC3CCC(C2)N3Cc2ccncc2)ccc1-c1ccc(C(O)(C(F)(F)F)C(F)(F)F)cc1 [Example 53, 2-(2′-ethyl-4′-((8-(pyridin-4-ylmethyl)-3,8-diazabicyclo[3.2.1]octan-3-yl)methyl)-[1,1′-biphenyl]-4-yl)-1,1,1,3,3,3-hexafluoropropan-2-ol] | < 0.05
14 | COCC(=O)N1C2CCC1CN(Cc1ccc(-c3ccc(C(O)(C(F)(F)F)C(F)(F)F)cc3)c(C)c1)C2 [Example 54, 1-(3-((4′-(1,1,1,3,3,3-hexafluoro-2-hydroxypropan-2-yl)-2-methyl-[1,1′-biphenyl]-4-yl)methyl)-3,8-diazabicyclo[3.2.1]octan-8-yl)-2-methoxyethan-1-one] | 0.05 to 0.25
15 | CS(=O)(=O)N1C2CCC1CN(Cc1ccc(-c3ccc(C(O)(C(F)(F)F)C(F)(F)F)cc3)c(Cl)c1)C2 [Example 55, 2-(2′-chloro-4′-((8-(methylsulfonyl)-3,8-diazabicyclo[3.2.1]octan-3-yl)methyl)-[1,1′-biphenyl]-4-yl)-1,1,1,3,3,3-hexafluoropropan-2-ol] | 0.05 to 0.25
16 | OC(c1ccc(-c2ccc(CN3CC4CCC(C3)N4Cc3ccncc3)cc2Cl)cc1)(C(F)(F)F)C(F)(F)F [Example 56, 2-(2′-chloro-4′-((8-(pyridin-4-ylmethyl)-3,8-diazabicyclo[3.2.1]octan-3-yl)methyl)-[1,1′-biphenyl]-4-yl)-1,1,1,3,3,3-hexafluoropropan-2-ol] | < 0.05
17 | CS(=O)(=O)N1C2CCC1CN(Cc1ccc(-c3ccc(C(O)(C(F)(F)F)C(F)(F)F)cc3)c(C(F)(F)F)c1)C2 [Example 57, 1,1,1,3,3,3-hexafluoro-2-(4′-((8-(methylsulfonyl)-3,8-diazabicyclo[3.2.1]octan-3-yl)methyl)-2′-(trifluoromethyl)-[1,1′-biphenyl]-4-yl)propan-2-ol] | 0.05 to 0.25
18 | OC(c1ccc(-c2ccc(CN3CC4CCC(C3)N4Cc3ccncc3)cc2C(F)(F)F)cc1)(C(F)(F)F)C(F)(F)F [Example 58, 1,1,1,3,3,3-hexafluoro-2-(4′-((8-(pyridin-4-ylmethyl)-3,8-diazabicyclo[3.2.1]octan-3-yl)methyl)-2′-(trifluoromethyl)-[1,1′-biphenyl]-4-yl)propan-2-ol] | < 0.05
19 | OC(c1ccc(-c2ccc(CN3CC4CCC(C3)N4Cc3ccncc3)cc2F)cc1)(C(F)(F)F)C(F)(F)F [Example 59, 1,1,1,3,3,3-hexafluoro-2-(2′-fluoro-4′-((8-(pyridin-4-ylmethyl)-3,8-diazabicyclo[3.2.1]octan-3-yl)methyl)-[1,1′-biphenyl]-4-yl)propan-2-ol] | > 0.25
20 | Cc1cc(CN2CC3CCC(C2)N3S(=O)(=O)C(F)(F)F)ccc1-c1ccc(C(O)(C(F)(F)F)C(F)(F)F)cc1 [Example 60, 1,1,1,3,3,3-hexafluoro-2-(2′-methyl-4′-((8-((trifluoromethyl)sulfonyl)-3,8-diazabicyclo[3.2.1]octan-3-yl)methyl)-[1,1′-biphenyl]-4-yl)propan-2-ol] | > 0.25
21 | CS(=O)(=O)N1C2CCC1CN(Cc1ccc(-c3ccc(C(O)(C(F)(F)F)C(F)(F)F)cc3)c(F)c1)C2 [Example 61, 1,1,1,3,3,3-hexafluoro-2-(2′-fluoro-4′-((8-(methylsulfonyl)-3,8-diazabicyclo[3.2.1]octan-3-yl)methyl)-[1,1′-biphenyl]-4-yl)propan-2-ol] | > 0.25
22 | Cc1cc(CN2CC3CCC(C2)N3S(=O)(=O)c2ccc(F)cc2)ccc1-c1ccc(C(O)(C(F)(F)F)C(F)(F)F)cc1 [Example 62, 1,1,1,3,3,3-hexafluoro-2-(4′-((8-((4-fluorophenyl)sulfonyl)-3,8-diazabicyclo[3.2.1]octan-3-yl)methyl)-2′-methyl-[1,1′-biphenyl]-4-yl)propan-2-ol] | > 0.25
23 | Cc1cc(CN2CC3CCC(C2)N3Cc2ccncc2F)ccc1-c1ccc(C(O)(C(F)(F)F)C(F)(F)F)cc1 [Example 63, 1,1,1,3,3,3-hexafluoro-2-(4′-((8-((3-fluoropyridin-4-yl)methyl)-3,8-diazabicyclo[3.2.1]octan-3-yl)methyl)-2′-methyl-[1,1′-biphenyl]-4-yl)propan-2-ol] | 0.05 to 0.25
24 | Cc1cc(CN2CC3CCC(C2)N3S(=O)(=O)C2CC2)ccc1-c1ccc(C(O)(C(F)(F)F)C(F)(F)F)cc1 [Example 64, 2-(4′-((8-(cyclopropylsulfonyl)-3,8-diazabicyclo[3.2.1]octan-3-yl)methyl)-2′-methyl-[1,1′-biphenyl]-4-yl)-1,1,1,3,3,3-hexafluoropropan-2-ol] | 0.05 to 0.25
